Measured values: article PMC12117711, “The contribution of cyclic imide stereoisomers on cereblon-dependent activity†” (Chemical Science, 2025)
Where “and” joins values, the source holds several entries; their conditions need not be identical. Equal values may be shown once. Read-outs that look alike come from different tables or passages of the source. Non-standard residues stand in square brackets, D forms with d. Residues, ends and D or L forms follow the SMILES beside them. No end group written: not given here. *: point of attachment. epicN = C-terminal cyclic asparagine (aspartimide), (R)-epimer, epimer of cN, O=C1C[C@@H](N*)C(=O)N1; Aspartimide = O=C1C[C@H](N*)C(=O)N1; Fmoc = O=C(OCC1c2ccccc2-c2ccccc21)*; X3 = O=C1CC[C@@H](N*)C(=O)N1; X1 = O=C1C[C@@H](N*)C(=O)N1; X2 = O=C1CC[C@H](N*)C(=O)N1

Tests used:
His6-CRBN/DDB1 = His6-CRBN/DDB1 (Homo sapiens, UniProt Q96SW2); assay: TR-FRET ligand displacement assay (Thal-FITC tracer) with His6-CRBN/DDB1; settings: for pIC50 (M) / IC50: Thalidomide-FITC tracer 50 nM
[1] = target: T1, GSPT1-GFP in HEK293T cells (Homo sapiens, UniProt P15170+Q96SW2); assay: Degradation assay by flow cytometry, GSPT1-GFP; type: cell-based
T1 construct: expressed in transfected cells
Excerpt: μg/mL), and 10% (v/v) FBS. […]
Degradation assay by flow cytometry
resuspension in DMEM +/– without phenol red. For IKZF1 degradation assay, propidium
equipped with a high throughput sampler.
using the BD FACSDiva software v9.1. For each experimental condition, the arithmetic mean
comparing compound treatment to DMSO control. […]
The same analysis was also applied to the (S)-
dependent activity, we adjusted the dose-response curves accordingly. Because dose-
within the error margins of the original curve.
squares F-test. This analysis determined whether there was a statistically significant
derived (S)-enantiomer. […]

[2] = Time-course study of racemization of lenalidomide, photo-lenalidomide and deuterated analogs in RPMI medium; type: physicochemical; settings: RPMI media, 37 °C, read-out: t50%ee (racemization half-life) (converted)
Method: Time-course Study of Racemization of Lenalidomide and Photo-lenalidomide in RPMI Medium To a 12-well plate, 25 μL of the indicated compound (4 mM stock solution in methanol) was added and methanol was air-dried. 1 mL of RPMI medium was added to each well containing the compound and the plate was incubated at 37 °C, 5% CO2. At the indicated time point, RPMI medium containing the compound was collected in a 5-mL Eppendorf tube, and 4 mL of HPLC-grade ethyl acetate was added to each tube. The tube was shaken for 2 min to extract the compounds into ethyl acetate. After two layers were separated, 3 mL was taken from the organic layer and filtered through sodium sulfate to remove residual water. To the same 5-mL Eppendorf tube, 3 mL of HPLC-grade ethyl acetate was added to repeat the extraction step.
The taken organic layers were combined and concentrated in vacuo to dryness. The sample was resuspended in HPLC grade isopropanol and analyzed with Waters Prep 150 LC System equipped with a chiral column with conditions indicated in the synthetic procedure.
The experimental data obtained were fitted to the following rate equation for racemization:1 […]
Where Y represents the ratio of the other enantiomer formed via racemization with constraints 2 of Top = 1 (100% conversion) and Bottom = 0 (0% conversion), Krac is the rate constant for the racemization, and t is incubation time. For the sake of symmetry, rate constants are the […]
In the analysis of the above curve fitting model, parameter estimation for Krac was carried out using nonlinear least squares regression, employing the “curve_fit” function from the SciPy library in Python. This approach yielded an estimated value for Krac. To ascertain the precision of this estimation and to quantify the associated uncertainty, the standard error of Krac was calculated based on the diagonal elements of the covariance matrix returned by the curve fitting procedure. Subsequently, to construct a 95% confidence interval for the extrapolated racemization curves, the t-distribution was employed, considering the degrees of freedom (the number of data points minus the number of fitted parameters). The critical t-value for a 95% confidence level was determined by using the “t.ppf” function from the SciPy library in Python, and the confidence interval for Krac was then derived as the following equation: […]
Where tcritical is the critical t-value for a 95% confidence level and SE(Krac) is the standard error […]
The upper and lower bounds of this interval were further utilized to generate the corresponding confidence bounds for the curve, offering a visual representation of the uncertainty inherent in […]

His6-CRBN/DDB1 complex [3] = target: His6-CRBN/DDB1 complex (UniProt Q96SW2)
His6-CRBN/DDB1 complex [4] = target: T2, His6-CRBN/DDB1 complex (UniProt Q96SW2 1-442; Q16531 1-1140); assay: AlphaScreen or HTRF; competitive TR-FRET ligand displacement; peptide titrated against recombinant His6-CRBN/DDB1 (2.5 nM) with the tracer Thalidomide-FITC (50 nM); KD from IC50 by the correction factor 1.426 (tracer KD 2-site 117.3 nM); settings: both partners purified
T2 construct: cereblon (CRBN), E3 ligase substrate adapter; DDB1, in complex with His6-CRBN; Column 'Protein' of S0003 says only 'CRBN'; the text and legends name His6-CRBN/DDB1 for this TR-FRET assay; also called cereblon; source: recombinant

[5] = KD, competitive TR-FRET, His6-CRBN/DDB1
[6] = HEK293T, 3 h, flow cytometry, read-out: DC50
[7] = KD (M), Protein CRBN, from IC50 with Correction Factor 1.43
[8] = IC50 (M), Protein CRBN, protein […]
[9] = IC50 (nM), Protein CRBN, protein […]
[10] = KD (nM), Protein CRBN, from IC50 with Correction Factor 1.43
[11] = Protein CRBN, from IC50 with Correction Factor 1.43

Molecule: Cc1ccc(NC(=O)NCc2ccc3c(c2)CN(C2CCC(=O)NC2=O)C3=O)cc1Cl (racemic) [rac-CC885, CC885, reference compound]
- Kd (His6-CRBN/DDB1; [5]): ≤ 4e-09 M

Molecule: [2H]C1([2H])CC([2H])(N2Cc3cc(CNC(=O)Nc4ccc(C)c(Cl)c4)ccc3C2=O)C(=O)NC1=O (racemic) [rac-CC885-d3]
- Kd (His6-CRBN/DDB1; [5]): ≤ 4e-09 M
- DC50 [1, 6]: ≤ 2 nM

Molecule: Cc1ccc(NC(=O)NCc2ccc3c(c2)CN(C2CCC(=O)NC2=O)C3=O)cc1Cl (racemic) [rac-CC-885]
- pIC50 (M) (His6-CRBN/DDB1; Protein CRBN): 8.29 M

Molecule: [2H]C1([2H])CC([2H])(N2Cc3c(N)cccc3C2=O)C(=O)NC1=O (racemic) [rac-Len-d3]
- half-life at 100 µM [2]: 24 to 25 h

Molecule: [2H]C1([2H])C[C@@]([2H])(N2Cc3cc(CNC(=O)Nc4ccc(C)c(Cl)c4)ccc3C2=O)C(=O)NC1=O [(R)-CC885-d3]
- Kd (His6-CRBN/DDB1; [5]): 4.01e-07 M
- DC50 [1, 6]: 25 nM

Molecule: Nc1cccc2c1CN([C@@H]1CCC(=O)NC1=O)C2=O [(R)-lenalidomide]
- half-life at 100 µM [2]: 4.3 h

Molecule: [2H]C1([2H])C[C@]([2H])(N2Cc3cc(CNC(=O)Nc4ccc(C)c(Cl)c4)ccc3C2=O)C(=O)NC1=O [(S)-CC885-d3]
- Kd (His6-CRBN/DDB1; [5]): ≤ 3e-09 M
- Kd (His6-CRBN/DDB1; predicted KD of the (S)-stereoisomer, ligand displacement assay adjusted for (S)-stereoisomer, (S)-stereoisomer in the (S)-sample, corrected for racemization): 3.2e-09 ± 1e-10 M
- DC50 ([1]; (S) in the (S)-sample, read-out: predicted DC50 of the (S)-stereoisomer, adjusted for (S)-stereoisomer): 1.2 ± 0.3 nM
- DC50 [1, 6]: ≤ 2 nM

Molecule: Nc1cccc2c1CN([C@H]1CCC(=O)NC1=O)C2=O [(S)-lenalidomide]
- half-life at 100 µM [2]: 4.2 h

Molecule: O=C(CNC(=O)CNC(=O)OCC1c2ccccc2-c2ccccc21)NCC(=O)N[C@@H](Cc1ccccc1)C(=O)N[C@H]1CC(=O)NC1=O [Fmoc-GGGFcN] (Fmoc-GGGF-Aspartimide)
- Kd (His6-CRBN/DDB1; [7]): 3.67e-08 M

Molecule: O=C(CNC(=O)CNC(=O)OCC1c2ccccc2-c2ccccc21)NCC(=O)N[C@@H](Cc1ccccc1)C(=O)N[C@H]1CCC(=O)NC1=O [Fmoc-GGGFcQ] (Fmoc-GGGF-X2)
- IC50 (His6-CRBN/DDB1; [8]): 1.28e-07 M
- Kd (His6-CRBN/DDB1; [7]): 8.94e-08 M

Molecule: O=C(CNC(=O)CNC(=O)OCC1c2ccccc2-c2ccccc21)NCC(=O)N[C@@H](Cc1ccccc1)C(=O)N[C@@H]1CC(=O)NC1=O [Fmoc-GGGFepicN] (Fmoc-GGGF-X1)
- IC50 (His6-CRBN/DDB1; [9]): 4.08e-06 M
- Kd (His6-CRBN/DDB1; [7]): 2.86e-06 M
- Kd (His6-CRBN/DDB1; [5]): 2.86e-06 M and 2.87e-06 M
- IC50 (His6-CRBN/DDB1; pIC50 (M), Protein CRBN): 4.07e-06 M
- Kd (His6-CRBN/DDB1; pKD (M), Protein CRBN, from IC50 with Correction Factor 1.43): 2.88e-06 M

Molecule: O=C(CNC(=O)CNC(=O)OCC1c2ccccc2-c2ccccc21)NCC(=O)N[C@@H](Cc1ccccc1)C(=O)N[C@@H]1CCC(=O)NC1=O [Fmoc-GGGFepicQ] (Fmoc-GGGF-X3)
- IC50 (His6-CRBN/DDB1; [8]): 7.69e-07 M
- Kd (His6-CRBN/DDB1; [7]): 5.39e-07 M

Molecule: C[C@H](NC(=O)CNC(=O)CNC(=O)CN)C(=O)N[C@H]1CC(=O)NC1=O [GGGAcN] (H-GGGA-Aspartimide)
- IC50 (His6-CRBN/DDB1; [8]): 3.44e-07 M
- Kd (His6-CRBN/DDB1; [7]): 2.42e-07 M
- Kd (His6-CRBN/DDB1; [10]): 2.42e-07 M

Molecule: C[C@H](NC(=O)CNC(=O)CNC(=O)CN)C(=O)N[C@@H]1CC(=O)NC1=O [GGGAepicN] (H-GGGA-X1)
- IC50 (His6-CRBN/DDB1; [8]): 1.12e-05 M

Molecule: Cc1sc2c(c1C)C(c1ccc(Cl)cc1)=N[C@@H](CC(=O)NCCCCCCCCC(=O)N[C@@H](Cc1ccccc1)C(=O)N[C@H]1CC(=O)NC1=O)c1nnc(C)n1-2 [JQ1-FcN]
- pIC50 (M) (His6-CRBN/DDB1; Protein CRBN): 7.42 M
- IC50 (His6-CRBN/DDB1; Protein CRBN, protein […]): 3.8e-08 M
- Kd (His6-CRBN/DDB1; [11]): 2.66e-08 M and 2.7e-08 M
- pKD (M) (His6-CRBN/DDB1; [11]): 7.57 M

Molecule: Cc1sc2c(c1C)C(c1ccc(Cl)cc1)=N[C@@H](CC(=O)NCCCCCCCCC(=O)N[C@@H](Cc1ccccc1)C(=O)N[C@H]1CCC(=O)NC1=O)c1nnc(C)n1-2 [JQ1-FcQ]
- pIC50 (M) (His6-CRBN/DDB1; Protein CRBN): 6.86 M
- IC50 (His6-CRBN/DDB1; Protein CRBN, protein […]): 1.38e-07 M
- Kd (His6-CRBN/DDB1; [11]): 9.65e-08 M and 9.7e-08 M
- pKD (M) (His6-CRBN/DDB1; [11]): 7.02 M

Molecule: CN1C(=O)CCC(N2Cc3c(N)cccc3C2=O)C1=O (stereo not drawn) [Me-Len, reference compound]
- IC50 (His6-CRBN/DDB1; [8]): 1.53e-05 M
- IC50 (His6-CRBN/DDB1; [9]): 1.53e-05 M
- Kd (His6-CRBN/DDB1; [7]): 1.07e-05 M
- Kd (His6-CRBN/DDB1; [10]): 1.07e-05 M
- Kd (His6-CRBN/DDB1; [5]): 1.07e-05 M

Molecule: Nc1cccc2c1CN(C1CCC(=O)NC1=O)C2=O (stereo not drawn) [lenalidomide]
- half-life at 100 µM [2]: 4.2 to 4.3 h

Molecule: GFP-FcN
- in vitro monoubiquitination with K0-ubiquitin mediated by the CRL4^CRBN complex, fold over methylated GFP-FcQ (GFP-FcQMe) (His6-CRBN/DDB1 complex [3]): 7.1 fold

Molecule: GFP-FcQ
- in vitro monoubiquitination with K0-ubiquitin mediated by the CRL4^CRBN complex, fold over methylated GFP-FcQ (GFP-FcQMe) (His6-CRBN/DDB1 complex [3]): 4.8 fold

Molecule: GFP-FepicN
- in vitro monoubiquitination with K0-ubiquitin mediated by the CRL4^CRBN complex, fold over methylated GFP-FcQ (GFP-FcQMe); did not reach statistical significance (His6-CRBN/DDB1 complex [3]): 1.3 fold

Molecule: GFP-FepicQ
- in vitro monoubiquitination with K0-ubiquitin mediated by the CRL4^CRBN complex, fold over methylated GFP-FcQ (GFP-FcQMe) (His6-CRBN/DDB1 complex [3]): 2.4 fold

B1: Fmoc-GGGFcN (peptide)
peptide: Fmoc-GGGF[Aspartimide]
SMILES: O=C(CNC(=O)CNC(=O)OCC1c2ccccc2-c2ccccc21)NCC(=O)N[C@@H](Cc1ccccc1)C(=O)N[C@H]1CC(=O)NC1=O
notes: pentapeptide; the C-terminal N is cyclised to the C-terminal cyclic imide (aspartimide); source: synthetic peptide
- IC50 (His6-CRBN/DDB1 complex [4]): 52.4 nM

B2: GGGAcN (peptide)
peptide: GGGA[Aspartimide]
notes: pentapeptide; the C-terminal N is cyclised to the C-terminal cyclic imide (aspartimide); The sheet prints no Fmoc for this peptide; also called pentapeptide bearing AcN; source: synthetic peptide
- Kd (His6-CRBN/DDB1 complex [4]): 242 nM

B3: GGGAepicN (peptide)
peptide: GGGA[epicN]
notes: pentapeptide; the C-terminal N is cyclised to the aspartimide and is the epimer of that in GGGAcN; The sheet prints no Fmoc for this peptide; also called pentapeptide bearing AepicN; source: synthetic peptide
- Kd (His6-CRBN/DDB1 complex [4]): 7850 nM
